Data as given in ChEMBL document CHEMBL1201862, “PubChem BioAssay data set” (2004).
Activity calls are given as the source filed them.

Experiments:
[1] = viability of uninfected HEp-2 cells – cell-based, HTS, cytotoxicity control for RSV inhibitor project, dose response (AID 2410); type: functional; details: human respiratory syncytial virus
[2] = cells
[3] = target: T1, Leucine aminopeptidase (Plasmodium falciparum 3D7, UniProt Q8IL11); experiment: P. falciparum M17LAP inhibitors, primary screen, biochemical, fluorogenic H-Leu-NHMec substrate, 1536-well (AID 1619); type: functional
T1 sequence (Q8IL11 whole entry): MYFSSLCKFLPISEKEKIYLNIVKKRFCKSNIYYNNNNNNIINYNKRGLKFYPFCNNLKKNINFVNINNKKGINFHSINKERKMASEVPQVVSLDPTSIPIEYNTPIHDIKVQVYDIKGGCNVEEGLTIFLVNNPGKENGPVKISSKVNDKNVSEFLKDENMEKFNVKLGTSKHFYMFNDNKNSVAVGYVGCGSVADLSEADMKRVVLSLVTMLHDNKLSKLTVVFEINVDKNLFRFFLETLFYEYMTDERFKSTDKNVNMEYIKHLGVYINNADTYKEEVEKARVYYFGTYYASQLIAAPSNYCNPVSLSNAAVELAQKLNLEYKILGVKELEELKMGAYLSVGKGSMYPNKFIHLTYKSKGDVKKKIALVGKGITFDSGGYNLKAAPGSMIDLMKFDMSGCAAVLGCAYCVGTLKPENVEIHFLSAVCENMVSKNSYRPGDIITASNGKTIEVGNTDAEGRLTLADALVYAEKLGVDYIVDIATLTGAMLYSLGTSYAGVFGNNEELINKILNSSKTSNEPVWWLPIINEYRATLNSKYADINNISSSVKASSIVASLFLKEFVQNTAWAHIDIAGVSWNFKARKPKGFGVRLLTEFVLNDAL

[4] = target: Major prion protein (Homo sapiens, UniProt P04156); type: functional, cell-based
[5] = cells; remark: listed apart in the source
[6] = HEK-293T cell viability reduction – luminescence, B-cell screen hits, cytotoxicity control for BCR NF-kB inhibitor project, dose response (AID 489021); type: functional, cell-based;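 note: HEK-293T cells carrying an NF-kB luciferase reporter; cells exposed to compound for about 14 hours before viability readout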
[7] = luciferase reporter signal suppression in cells – H4 neuroglioma cells, luminescence, dose response (AID 1990); type: functional, cell-based
[8] = Luminescence Cell-Based Dose Response HTS to Identify Inhibitors of 5'UTR Stem-Loop Driven Prion Protein mRNA Translation in H4 Neuroglioblastoma Cells. [Related pubchem assays: 1827 (Project Summary), 1813 (Primary HTS)]; type: functional
[9] = alpha-synuclein stem-loop luciferase translation blockers – H4 neuroglioma cells, luminescence, confirmation (AID 1988); type: functional, cell-based
[10] = target: Melanocortin receptor 4 (Homo sapiens, UniProt P32245); type: functional, cell-based;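 note: Cell-based assay with luminescence read-out, confirmatory dose-response testing for agonist activity of biased ligands at MC4R; human U2OS cells with tagged receptor and beta-arrestin; potency of agonists that increase receptor coupling to beta-arrestin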
[11] = A Cell Based Secondary Assay To Explore Cytotoxicity of Compounds that Sensitize Mycobacterium Tuberculosis to Beta-Lactam Antibiotics.; type: functional
[12] = target: T2, Heat shock factor protein 1 (Mus musculus, UniProt P38532); experiment: decrease of HSF1-responsive luciferase luminescence – cell-based, NIH3T3, dose retest, confirmation (AID 2382); type: functional;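 note: NIH3T3 fibroblasts with HSF1-driven luciferase reporter stressed by proteasome inhibitor MG132; luminescence from HSF1-driven luciferase expression after 8 hours of MG132 stress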
T2 sequence (P38532 whole entry): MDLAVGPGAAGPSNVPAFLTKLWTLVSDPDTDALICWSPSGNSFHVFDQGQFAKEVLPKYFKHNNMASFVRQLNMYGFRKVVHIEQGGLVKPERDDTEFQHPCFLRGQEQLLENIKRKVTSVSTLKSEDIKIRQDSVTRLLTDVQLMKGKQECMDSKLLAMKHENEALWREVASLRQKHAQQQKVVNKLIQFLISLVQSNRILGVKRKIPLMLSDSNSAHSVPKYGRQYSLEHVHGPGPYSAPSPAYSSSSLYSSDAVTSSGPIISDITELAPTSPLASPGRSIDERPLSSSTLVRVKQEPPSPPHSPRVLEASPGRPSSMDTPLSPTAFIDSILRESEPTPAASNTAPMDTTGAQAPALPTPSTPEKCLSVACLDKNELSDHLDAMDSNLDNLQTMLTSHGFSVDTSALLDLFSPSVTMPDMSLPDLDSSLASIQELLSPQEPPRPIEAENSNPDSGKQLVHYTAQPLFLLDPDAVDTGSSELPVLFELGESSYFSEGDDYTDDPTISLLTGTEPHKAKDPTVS

[13] = target: Heat shock protein HSP 90-alpha (Homo sapiens, UniProt P07900); type: functional, organism-based
[14] = target: Glyceraldehyde-3-phosphate dehydrogenase (Homo sapiens, UniProt P04406)
[15] = target: T3, Alkaline phosphatase, tissue-nonspecific isozyme (Homo sapiens, UniProt P05186); experiment: potency against alkaline phosphatase TNAP – biochemical, luminescent, dose response, SAR follow-up (AID 1056)
T3 sequence (P05186 whole entry): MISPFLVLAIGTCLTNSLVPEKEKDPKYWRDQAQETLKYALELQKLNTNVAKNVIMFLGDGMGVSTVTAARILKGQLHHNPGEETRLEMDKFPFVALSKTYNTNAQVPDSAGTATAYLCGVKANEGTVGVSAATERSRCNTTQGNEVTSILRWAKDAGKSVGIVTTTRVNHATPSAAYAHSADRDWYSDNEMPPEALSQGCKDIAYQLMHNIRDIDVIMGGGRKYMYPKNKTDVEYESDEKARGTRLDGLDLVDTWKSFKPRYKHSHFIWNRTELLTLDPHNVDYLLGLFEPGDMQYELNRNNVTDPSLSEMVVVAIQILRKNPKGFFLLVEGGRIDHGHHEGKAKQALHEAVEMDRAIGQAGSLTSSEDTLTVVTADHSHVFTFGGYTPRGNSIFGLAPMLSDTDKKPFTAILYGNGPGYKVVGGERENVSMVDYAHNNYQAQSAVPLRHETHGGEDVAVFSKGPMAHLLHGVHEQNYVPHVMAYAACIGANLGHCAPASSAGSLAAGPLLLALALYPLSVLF

[16] = NIH-3T3 fibroblast cytotoxicity, dose response, cytotoxicity control, cell-based, fluorescence, Alamar Blue, secondary assay (AID 2327); type: functional;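 note: NIH-3T3 mouse fibroblasts cultured with fluconazole at 8 µg/mL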
[17] = fluconazole-exposed Candida albicans growth modulators – fluorescence, retest, confirmation (AID 2467); type: functional, cell-based
[18] = Trypanosoma cruzi growth suppression in host cells – NIH3T3 host cells, beta-gal luminescence, confirmation (AID 2044); type: functional, cell-based;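 note: intracellular parasites grown in NIH/3T3 mouse fibroblasts as host cells; luminescent beta-galactosidase reporter signal from transgenic T. cruzi replicating inside host cells; inhibitors lower the luminescence signal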
[19] = NIH3T3 cell viability loss – ATP luminescence, mouse fibroblasts, counter-screen, dose response (AID 2010); type: functional, cell-based;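 note: cells exposed to compound for about 90 hours before reading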
[20] = target: Induced myeloid leukemia cell differentiation protein Mcl-1 (Homo sapiens, UniProt Q07820); type: functional
[21] = blockers of HIV-1 envelope-mediated cell-cell fusion – cherry-pick, dose response (AID 652057); type: functional, cell-based
[22] = blockers of HIV-1 ZM109 envelope-driven cell-cell fusion – HeLa effector, CEM target cells, luciferase, cherry-pick, dose response (AID 652058); type: functional, cell-based;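 note: luciferase signal from HIV-1 Env mediated cell-cell fusion of effector and target cells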
[23] = off-target signal loss in HeLa-CEM21 co-culture – HeLa F-luc CTL cells, cherry-picked, counter-screen for HIV-1 Env fusion inhibitor project, dose response (AID 652040); type: functional, cell-based;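 note: potency for signal decrease marking cytotoxic or nonspecific inhibition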
[24] = HIV-1 AD8 envelope cell-cell fusion blockers – cherry-pick, dose response (AID 652062); type: functional, cell-based;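 note: luciferase signal from cell-cell fusion driven by HIV-1 clade B AD8 Env; potency is for inhibitors of fusion seen as a drop in luminescence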
[25] = reduction of Shn3 3'UTR-driven luciferase in osteoblasts – cell-based, Clone20 osteoblasts, firefly luciferase, cherry-picked, dose response (AID 624132); type: functional;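 note: firefly luciferase luminescence from reporter carrying the Shn3 3'UTR in osteoblasts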
[26] = loss of viability in HepG2 cells – cell-based, CellTiter-Glo, cherry-picked, cytotoxicity control for Shn3 inhibitor project, dose response (AID 624134); type: functional
[27] = non-specific 3'UTR reporter inhibition in Clone20-Shn3RL – cell-based, Renilla luciferase, cherry-picked, counter-screen for Shn3 inhibitor project, dose response (AID 624133); type: functional
[28] = target: Cytochrome P450 3A4 (Homo sapiens, UniProt P08684);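 note: CYP3A4 tested as one member of a cytochrome P450 panel screen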
[29] = target: Paired box protein Pax-8 (Homo sapiens, UniProt Q06710); experiment: PAX8 transcriptional activity inhibition in RMG-I – RMG-I cells, luciferase, cherry-pick, dose response (AID 687027); type: functional, cell-based;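 note: luciferase reporter driven by Pax8 target thyroperoxidase promoter measured by SteadyGlo luminescence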
[30] = OVCAR-3 cell viability loss – plate reader, dry powder samples, PAX8 inhibitor project, dose response (AID 743044); type: functional, cell-based

O=C(O)c1cccc(NC(=S)NC(=O)c2ccc(-c3ccc(Cl)cc3)o2)c1
CC50 [1]: 27.8 µM (active)
IC50 [2]: 11.4 µM (active)

O=C(O)c1cccc(C(=O)Cc2ccccc2)c1
IC50 [3]: 17.5 µM (active)

O=C(CN1C(=O)c2ccccc2S1(=O)=O)NCCSCc1ccco1
IC50 [3]: 16.2 µM (active)

CCc1nc(SCC(=O)Nc2nc3c(s2)CCCC3)c2ccccc2n1
IC50 [4]: 6.97 µM (active)
IC50 [5]: > 138 µM (inactive)

COc1ccc2[nH]c(C(=O)Nc3ccc(C)c(F)c3)cc2c1
IC50 [4]: 10.5 µM (inactive)
IC50 [5]: > 138 µM (inactive)

C=CCN1C(=O)NC(=O)/C(=C(\C)NC(C)c2ccccc2)C1=O (centres undefined)
IC50 [6]: > 80 µM (inactive)

COc1cccc(/C=C2/SC(=S)N(CCCC(=O)Nc3ccc(O)cc3)C2=O)c1
EC50 [7]: 6.72 µM (active)
EC50 [8]: 8.15 µM (active)
EC50 [9]: 16.3 µM (active)
IC50 [6]: 29 µM (inactive)
EC50 [10]: > 89.2 µM (inactive)

CC(C)(C)c1nn(-c2ccccc2)c2nc(O)c(CNc3ccc4c(c3)OCCO4)cc12
CC50 [11]: > 40 µM (active)
EC50 [12]: 83.3 µM (active)
AC50 [13]: 8.3 µM (active)

NNC(=O)c1cc(-c2ccc(Cl)c(Cl)c2Cl)n[nH]1
IC50 [14]: > 10 µM (inconclusive)
IC50 [15]: 0.633 µM (active)

Cn1nc(-c2ccc(Cl)cc2)c2cc(C(=O)N3CCCC3)sc21
IC50 [6]: > 80 µM (inactive)

Oc1ccc(N2CCN(c3ncnc4sc(-c5ccccc5)cc34)CC2)cc1
EC50 [16]: > 160 µM (inactive)
EC50 [17]: 1.21 µM (active)
EC50 [18]: 3.78 µM (active)
EC50 [19]: > 60 µM (not active)
IC50 [20]: 1.43 µM (active)
EC50 [10]: > 89.2 µM (inactive)

Cn1c(=O)cc(OCCCC(=O)NCc2ccccn2)c2ccccc21
IC50 [6]: > 80 µM (inactive)

COc1ccccc1NC(=O)Nc1ccc2c(c1)CCC2
CC50 [1]: 46.2 µM (active)
IC50 [2]: 40.5 µM (active)

Cn1c(=O)c2nc(CNCc3ccccc3Cl)[nH]c2n(C)c1=O
CC50 [11]: > 40 µM (active)

Cc1ccc(C2C(C#N)=C(N)SC(N)=C2C#N)cc1
IC50 [4]: 1.86 µM (active)
IC50 [5]: > 138 µM (inactive)

CCOC(=O)[C@@H]1[C@H]2COc3ccc(Br)cc3[C@@H]2N2C(=O)N(c3ccccc3)C(=O)[C@@]12C
AC50 [21]: 2.15 µM (active)
AC50 [22]: 6.14 µM (active)
AC50 [23]: 5.09 µM (active)
AC50 [24]: 22.9 µM (active)

CN(C)S(=O)(=O)Oc1ccsc1C(=O)Nc1ccc(C(F)(F)F)cc1
CC50 [11]: > 40 µM (active)

CC1(C)CC(=O)c2c(n[nH]c2-c2cccs2)C1
IC50 [14]: > 10 µM (inconclusive)
IC50 [15]: 5.65 µM (active)

O=C(Nc1nnc(SCC(=O)N2CCCCC2)s1)c1cccs1
IC50 [3]: 30.4 µM (active)

CCN(C(=O)c1cc2cc3ccc(C)cc3nc2o1)c1ccc(OC)cc1
CC50 [1]: > 50 µM (active)
IC50 [2]: 33 µM (active)

COC(=O)c1ccc(C)c(NC(=O)CN2C(=O)c3ccccc3S2(=O)=O)c1
IC50 [3]: 10 µM (active)

Cc1c(CCO)c(O)oc2nnc(-c3ccccc3)c1-2
IC50 [14]: > 100 µM (not active)
IC50 [15]: > 100 µM (inactive)

Cc1cc2ncn(CC(=O)c3ccc(O)c(O)c3)c2cc1C
IC50 [15]: > 100 µM (inactive)

Fc1cccc(Cc2c(-c3ccco3)nc3ccc(Br)cn23)c1
IC50 [4]: 6.29 µM (active)
IC50 [5]: > 138 µM (inactive)

OC1(c2ccc(OC(F)F)cc2)CS/C(=N\c2cccnc2)N1C1CC1 (centres undefined)
AC50 [25]: 5.4 µM (active)
AC50 [26]: 7.56 µM (active)
AC50 [27]: 29.4 µM (active)
AC50 [22]: 36.4 µM (active)
AC50 [23]: > 70 µM (inactive)
AC50 [24]: 0.464 µM (active)
AC50 [28]: 0.794 µM (inconclusive)

COc1cccc(-c2ccc3c(c2)[C@H]2[C@H](CCN2C(=O)NC2CCCCC2)[C@@H](CO)N3C)c1
AC50 [29]: 10.6 µM (active)
AC50 [30]: 27.1 µM (active)

CC1CCN(C(=O)c2ncn3c2C(=O)N[C@H](C)C3)CC1
AC50 [21]: 4.8 µM (active)
AC50 [22]: 26.6 µM (active)
AC50 [23]: 16.1 µM (active)
AC50 [24]: 8.4 µM (active)

C[C@H]1CN([C@@H](C)CO)S(=O)(=O)c2ccc(C#Cc3ccc(F)cc3)cc2O[C@@H]1CN(C)C(=O)NC1CCCCC1
AC50 [29]: 6.32 µM (active)
AC50 [30]: 37.8 µM (active)

CN(C)CCC/N=C/c1c(-c2ccccc2)nn(-c2nc3ccccc3s2)c1O
IC50 [6]: > 80 µM (inactive)
